# Reference: patent publication US8722903B2, “Indazole derivatives for the treatment of HSP9O-induced diseases” (Merck Patent GmbH, priority 2006, dated 2014)
# pIC50: −log10 of the molar value.
# Biological target: T1, Recombinant human HSP90α (Homo sapiens, UniProt P07900)
# T1 construct: host or cells: E. coli
# Experiment: Radioligand filter binding test: competitive inhibition of [3H]17AAG binding to HSP90
# Conditions: [3H]17AAG 0.08 μM, HSP90 1.5 μg/assay, 22° C., 30 min
# Protocol: In the specific case, a radioligand filter binding test is used. The radioligand used here is tritium-labelled 17-allylaminogeldanamycin, [3H]17AAG, This filter binding test allows a targeted search for inhibitors which interfere with the ATP binding site.
# Recombinant human HSP90α (E. coli expressed, 95% purity);
# HEPES filter buffer (50 mM HEPES, pH 7.0, 5 mM MgCl2, BSA 0.01%) Multiscreen FB (1 μm) filter plate (Millipore, MAFBNOB 50).
# The 96-well microtitre filter plates are firstly irrigated and coated with 0.1% of polyethylenimine.
# The test is carried out under the following conditions:
# Reaction temperature 22° C.
# Reaction time: 30 min., shaking at 800 rpm
# 50 mM HEPES HCl, pH 7.0, 5 mM MgCl2, 0.01% (w/v) of BSA
# At the end of the reaction, the supernatant in the filter plate is removed by suction with the aid of a vacuum manifold (Multiscreen Separation System, Millipore), and the filter is washed twice.
# The filter plates are then measured in a beta counter (Microbeta, Wallac) with scintillator (Microscint 20, Packard).
# “% of control” is determined from the “counts per minutes” values, and the IC-50 value of a compound is calculated therefrom.
row,Compound,pIC50
1,"CCCCN(C)C(=O)c1cc2c(Cc3cccc(Cl)c3)n[nH]c2cc1O [Compound A39, 5-(N-Butyl-N-methylaminocarbonyl)-3-(3-chlorobenzyl)-6-hydroxy-1H-indazole]",6.00 to 8.00
2,"CN(Cc1cccc(Br)c1)C(=O)c1cc2c(Cc3ccccc3)n[nH]c2cc1O [Compound A26, 5-[N-(3-Bromobenzyl)-N-methylaminocarbonyl]-3-benzyl-6-hydroxy-1H-indazole]",5.00 to 6.00
3,"CCCN(C)C(=O)c1cc2c(Cc3ccccc3Cl)n[nH]c2cc1O [Compound A35, 5-(N-Propyl-N-methylaminocarbonyl)-3-(2-chlorobenzyl)-6-hydroxy-1H-indazole]",5.00 to 6.00
4,"COCCN(C)C(=O)c1cc2c(Cc3cccc(C)c3)n[nH]c2cc1O [Compound A37, 5-[N-(2-Methoxyethyl)-N-methylaminocarbonyl]-3-(3-methylbenzyl)-6-hydroxy-1H-indazole]",5.00 to 6.00
5,5-[N-(3-Methoxybenzyl)-N-methylaminocarbonyl]-3-benzyl-6-hydroxy-1H-indazole [Compound A27],6.00 to 8.00
6,"COCCN(C)C(=O)c1cc2c(Cc3ccccc3)n[nH]c2cc1O [Compound A7, 5-[N-(2-Methoxyethyl)-N-methylaminocarbonyl]-3-benzyl-6-hydroxy-1H-indazole]",5.00 to 6.00

# Second part, the compound after the results:
row,pIC50,Compound
1,5.00 to 6.00,"CCCCN(C)C(=O)c1cc2c(Cc3ccccc3C)n[nH]c2cc1O [Compound A43, 5-(N-Butyl-N-methylaminocarbonyl)-3-(2-methylbenzyl)-6-hydroxy-1H-indazole]"
2,6.00 to 8.00,"COc1ccc(N(C)C(=O)c2cc3c(Cc4cccc(OC)c4)n[nH]c3cc2O)cc1 [Compound A160, 5-[N-(4-Methoxyphenyl)-N-methylaminocarbonyl]-3-(3-methoxybenzyl)-6-hydroxy-1H-indazole]"
3,5.00 to 6.00,"Cc1cccc(Cc2n[nH]c3cc(O)c(C(=O)N(C)C4CCCCC4)cc23)c1 [Compound A195, 5-(N-Cyclohexyl-N-methylaminocarbonyl)-3-(3-methylbenzyl)-6-hydroxy-1H-indazole]"
4,5.00 to 6.00,"CCCN(C)C(=O)c1cc2c(Cc3cc(C)cc(F)c3)n[nH]c2cc1O [Compound A52, 5-(N-Propyl-N-methylaminocarbonyl)-3-(3-fluoro-5-methylbenzyl)-6-hydroxy-1H-indazole]"
5,6.00 to 8.00,"CCCc1n[nH]c2cc(O)c(C(=O)N(C)c3ccc4c(c3)OCO4)cc12 [Compound A175, 5-[N-(Benzo-1,3-dioxol-5-yl)-N-methylaminocarbonyl]-3-propyl-6-hydroxy-1H-indazole]"
